Data: patent US5196437A, “Method for treating hepatic diseases and regenerating liver tissue using FK 506 and related compounds” (Fujisawa Pharmaceutical Company, Ltd., priority 1990, dated 1993)

Experiments:
[1] = system: hepatocytes / rat liver regeneration; assay: Rat liver regeneration (3H-thymidine incorporation into hepatic DNA and hepatocyte mitosis) after sham operation or 40%/70% hepatectomy; type: in vivo, rat (Fisher 344); conditions: for 3H-thymidine incorporation / Proportion of hepatocytes in mitosis: 4 days, mean (SE)
Protocol: Adult male inbred Fisher 344 rats weighing 180-200 g were purchased from Hilltop Lab Animals Inc (Scottdale, Pa.). The animals were given standard rat laboratory diet and water ad libitum in a temperature and light controlled room (light 0730-1930). […] Animals in groups 3 and 4 had sham operations in which the liver was manipulated at laparotomy. Food and drink were allowed immediately. Parenteral fluid and electrolyte support were not required.
24 h after the hepatectomies, 185×10^4 Bq ^3 H-thymidine was administered to all rats by intraperitoneal injection. The rats, including groups 1 and 2, were killed 2 h later by guillotine. Extraction and purification of hepatic DNA were done with the method of Ove et al (Liver and hormones, New York: Raven Press, 1987:265-76) and DNA content was measured with calf thymus DMA (Sigma) as standard. Specimens from each liver were prepared for histological examination with hematoxylin and eosin and the proportion of hepatocytes in mitosis was counted. All results are means and SE.

[2] = system: midzonal hepatocytes; assay: Eck fistula dogs, left portal vein infusion: electron microscopy of hepatocyte organelles; type: in vivo, dog (beagle); conditions: for Organelle volume in average midzonal hepatocytes, Lipids, Left / Organelle volume in average midzonal hepatocytes, Lysosomes, Left / Organelle volume in average midzonal hepatocytes, Microbodies, Left / Organelle volume in average midzonal hepatocytes, Mitochondria, Left / Area of rough endoplasmic reticulum per average midzonal hepatocyte, Left / Area of smooth endoplasmic reticulum per average midzonal hepatocyte, Left: left (infused) lobe; for Organelle volume in average midzonal hepatocytes, Lipids, Left / Organelle volume in average midzonal hepatocytes, Lysosomes, Left / Organelle volume in average midzonal hepatocytes, Microbodies, Left / Organelle volume in average midzonal hepatocytes, Mitochondria, Left / Area of rough endoplasmic reticulum per average midzonal hepatocyte, Left / Area of smooth endoplasmic reticulum per average midzonal hepatocyte, Left / Organelle volume in average midzonal hepatocytes, Lipids, Right / Organelle volume in average midzonal hepatocytes, Lysosomes, Right / Organelle volume in average midzonal hepatocytes, Microbodies, Right / Organelle volume in average midzonal hepatocytes, Mitochondria, Right / Area of rough endoplasmic reticulum per average midzonal hepatocyte, Right / Area of smooth endoplasmic reticulum per average midzonal hepatocyte, Right: mean +/- SD; for Area of rough endoplasmic reticulum per average midzonal hepatocyte, Left: left vs right 0.0001; for Organelle volume in average midzonal hepatocytes, Lipids, Right / Organelle volume in average midzonal hepatocytes, Lysosomes, Right / Organelle volume in average midzonal hepatocytes, Microbodies, Right / Organelle volume in average midzonal hepatocytes, Mitochondria, Right / Area of rough endoplasmic reticulum per average midzonal hepatocyte, Right / Area of smooth endoplasmic reticulum per average midzonal hepatocyte, Right: right lobe
Protocol: Twenty adult female beagle dogs underwent Eck fistula (Starzl et al, Lancet, 1976, 1:821-25). After performing a large side to side portacaval shunt, the left and right portal vein branches were ligated. A small infusion catheter was tied into the left branch and led through the abdominal wall and subcutaneously to a battery charged infusion pump that was incorporated into a non-restraining body cast. A constant infusion was started of the control or test fluids at the volume of 20 to 30 ml/day. Oral fluids and diet were allowed ad lib. Four days later, the animals were administered 0.2 mCi/kg (CH3 -^3 H)-thymidine with specific activity of 80-90 Ci/MMol (New England Nuclear, Boston). Two hours later, the dogs were anesthetized and killed.
For studies of the organelles, small cubes of each hepatic sample were taken for electron microscopy. The tissue was post-fixed in glutaraldehyde followed by osmic acid. After embedding in Polarbed. 812 resin, ultrathin sections were cut, stained with lead citrate and examined in a Philip's 300 electron microscope. Measurements of the organelles were made on electron micrographs by Loud's method (Loud, J Cell Biol, 1968, 37:27-46).
Results are expressed as mean±standard deviation (SD). The Student's t-test was employed in individual experimental groups to compare differences between right and left lobes or between groups. A p value less than 0.05 was considered to be significant.

[3] = group 2: FK 506 1 mg/kg IM, no operation
[4] = group 10: FK 506 1 mg/kg IM, 70% hepatectomy, p < 0.01 vs group 8

C=CCC1C=C(C)CC(C)CC(OC)C2OC(O)(C(=O)C(=O)N3CCCCC3C(=O)OC(C(C)=CC3CCC(O)C(OC)C3)C(C)C(O)CC1=O)C(C)CC2OC (centres unmarked) [FK 506]
regeneration after hepatectomy compared with controls ([1]; 4 days pretreatment, intramuscular FK 506 or oral cyclosporin): significantly augmented compared with controls | hepatocyte mitosis and DNA synthesis in sham operation group ([1]; FK 506 added to sham operation): further and significantly increased | 3H-thymidine incorporation [1, 3]: 3.2 × 10^3 cpm/mg DNA | Proportion of hepatocytes in mitosis [1, 3]: 1.7% | 3H-thymidine incorporation ([1]; group 4: FK 506 1 mg/kg IM, sham operation, p < 0.005 vs groups 1, 2 and 3): 10.5 × 10^3 cpm/mg DNA | Proportion of hepatocytes in mitosis ([1]; group 4: FK 506 1 mg/kg IM, sham operation, p < 0.05 vs groups 1 and 2): 9.5% | 3H-thymidine incorporation ([1]; group 6: FK 506 1 mg/kg IM, 40% hepatectomy, p < 0.001 vs group 5): 32.4 × 10^3 cpm/mg DNA | 3H-thymidine incorporation [1, 4]: 242.0 × 10^3 cpm/mg DNA | Proportion of hepatocytes in mitosis [1, 4]: 59.0% | regeneration effect, FK 506 compared with cyclosporin ([1]; group 10 compared with group 9, 70% hepatectomy): greater with FK 506 than with cyclosporin | resting hepatocyte mitosis or DNA synthesis ([1]; unoperated rats): did not increase | Organelle volume in average midzonal hepatocytes, Lipids, Left ([2]; 0.01 mg/kg/day, left vs right p 0.0012): 23.3 +/- 8.8 uM^3 | Organelle volume in average midzonal hepatocytes, Lysosomes, Left ([2]; 0.01 mg/kg/day, left vs right p 0.0017): 62.3 +/- 15.1 uM^3 | Organelle volume in average midzonal hepatocytes, Microbodies, Left ([2]; 0.01 mg/kg/day, left vs right p 0.0080): 99.2 +/- 11.8 uM^3 | Organelle volume in average midzonal hepatocytes, Mitochondria, Left ([2]; 0.01 mg/kg/day, left vs right p 0.1903): 1233.7 +/- 222.4 uM^3 | Area of rough endoplasmic reticulum per average midzonal hepatocyte, Left ([2]; 0.01 mg/kg/day, p vs vehicle 0.0000): 26332 +/- 1483 uM^2 | Area of smooth endoplasmic reticulum per average midzonal hepatocyte, Left ([2]; 0.01 mg/kg/day, p vs vehicle 0.0661, left vs right 0.0000): 18433 +/- 535 uM^2 | Organelle volume in average midzonal hepatocytes, Lipids, Right ([2]; 0.01 mg/kg/day): 81.0 +/- 15.1 uM^3 | Organelle volume in average midzonal hepatocytes, Lysosomes, Right ([2]; 0.01 mg/kg/day): 162.6 +/- 48.9 uM^3 | Organelle volume in average midzonal hepatocytes, Microbodies, Right ([2]; 0.01 mg/kg/day): 173.8 +/- 39.6 uM^3 | Organelle volume in average midzonal hepatocytes, Mitochondria, Right ([2]; 0.01 mg/kg/day): 1429.5 +/- 331.2 uM^3 | Area of rough endoplasmic reticulum per average midzonal hepatocyte, Right ([2]; 0.01 mg/kg/day, p vs vehicle 0.0019): 18697 +/- 1010 uM^2 | Area of smooth endoplasmic reticulum per average midzonal hepatocyte, Right ([2]; 0.01 mg/kg/day, p vs vehicle 0.1092): 23337 +/- 902 uM^2 | Organelle volume in average midzonal hepatocytes, Lysosomes, Left ([2]; 0.1 mg/kg/day, left vs right p 0.0000): 59.6 +/- 15.6 uM^3 | Organelle volume in average midzonal hepatocytes, Lipids, Left ([2]; 0.1 mg/kg/day, left vs right p 0.0011): 22.8 +/- 6.7 uM^3 | Organelle volume in average midzonal hepatocytes, Microbodies, Left ([2]; 0.1 mg/kg/day, left vs right p 0.0025): 86.3 +/- 11.5 uM^3 | Organelle volume in average midzonal hepatocytes, Mitochondria, Left ([2]; 0.1 mg/kg/day, left vs right p 0.2529): 1288.5 +/- 236.2 uM^3 | Area of rough endoplasmic reticulum per average midzonal hepatocyte, Left ([2]; 0.1 mg/kg/day, p vs vehicle 0.0001): 29889 +/- 1117 uM^2 | Area of smooth endoplasmic reticulum per average midzonal hepatocyte, Left ([2]; 0.1 mg/kg/day, p vs vehicle 0.0703, left vs right 0.0018): 18688 +/- 498 uM^2 | Organelle volume in average midzonal hepatocytes, Lipids, Right ([2]; 0.1 mg/kg/day): 83.8 +/- 19.7 uM^3 | Organelle volume in average midzonal hepatocytes, Lysosomes, Right ([2]; 0.1 mg/kg/day): 187.6 +/- 14.8 uM^3 | Organelle volume in average midzonal hepatocytes, Microbodies, Right ([2]; 0.1 mg/kg/day): 172.5 +/- 34.2 uM^3 | Organelle volume in average midzonal hepatocytes, Mitochondria, Right ([2]; 0.1 mg/kg/day): 1439.3 +/- 115.4 uM^3 | Area of rough endoplasmic reticulum per average midzonal hepatocyte, Right ([2]; 0.1 mg/kg/day, p vs vehicle 0.0007): 20325 +/- 975 uM^2 | Area of smooth endoplasmic reticulum per average midzonal hepatocyte, Right ([2]; 0.1 mg/kg/day, p vs vehicle 0.0725): 22747 +/- 1305 uM^2 | preservation of the RER in the right lobes ([2]; 1 mg/kg/day, compared to vehicle controls): better preservation of the RER | lipid accumulation in right lobes ([2]; 1 mg/kg/day, compared to vehicle controls, p<0.001): reduced lipid accumulation | Organelle volume in average midzonal hepatocytes, Lysosomes, Left ([2]; 1.0 mg/kg/day, left vs right p 0.0002): 48.8 +/- 10.9 uM^3
